Here are results for 6 compounds from patent publication EP0908457B1, “3-(1,2-benzisothiazol- and isoxazol-5-Y1)-2,4(1H,3H)-pyrimidinedione or thione and 3-(1,2-benzisothiazol- and isoxazol-5-y1)-4(3H)-pyrimidinone or thione herbicidal agents” (BASF AKTIENGESELLSCHAFT, priority 1997, dated 1999).

What all share (format): in vivo
In test [1] the test system is Echinochloa oryzoides (Ard.) Fritsch. The test is described as follows: Preemergence weed control under flooded paddy conditions, ECHORC (Watergrass (Calif.)). Conditions: flooded paddy; for herbicidal effect rating, ECHORC: preemergence, rated three to four weeks after treatment; for ECHORC: preemergence weeds, herbicidal effect rating 0-9, three to four weeks after treatment.

The subject of the next test is Cyperus iria. The test is described as follows: Preemergence weed control under flooded paddy conditions, CYPIR (Rice Flatsedge). Conditions: flooded paddy; for herbicidal effect rating, CYPIR: preemergence, rated three to four weeks after treatment; for CYPIR: preemergence weeds, herbicidal effect rating 0-9, three to four weeks after treatment.
Test [2] concerns Cyperus serotinus, Rottb. The experiment in a line: Preemergence weed control under flooded paddy conditions, CYPSE (Flatsedge). Conditions: for herbicidal effect rating, CYPSE: preemergence, rated three to four weeks after treatment; for CYPSE: preemergence weeds, herbicidal effect rating 0-9, three to four weeks after treatment.
The subject of test [3] is Monochoria vaginalis, Presl. The experiment in a line: Preemergence weed control under flooded paddy conditions, MOOVA (Monochoria). Conditions: flooded paddy; for herbicidal effect rating, MOOVA: preemergence, rated three to four weeks after treatment; for MOOVA: preemergence weeds, herbicidal effect rating 0-9, three to four weeks after treatment.
A further test relates to Sagittaria pygmaea, L. The test is described as follows: Preemergence weed control under flooded paddy conditions, SAGPY (Arrowhead (Pygmaea)). Conditions: flooded paddy; for herbicidal effect rating, SAGPY: preemergence, rated three to four weeks after treatment; for SAGPY: preemergence weeds, herbicidal effect rating 0-9, three to four weeks after treatment.

Turning to `Cn1c(C(F)(F)F)cc(=O)n(-c2ccc3snc(COC(=O)Cc4ccc(Cl)cc4Cl)c3c2)c1=O` [Example 401, 2,4(1H,3H)-Pyrimidinedione, 3-[3-(hydroxymethyl)-1,2-benzisothiazol-5-yl]-1-methyl-6-(trifluoromethyl)-, (2,4-dichlorophenyl)acetate (ester)], the “herbicidal effect rating, ECHORC” value in test [1] (Rate 0.0320 kg/ha) was 0.0; in test [1] (Rate 0.0620 kg/ha) it was 0.0; in test [1] (Rate 0.1250 kg/ha), 2.0; in test [1] (Rate 0.2500 kg/ha), 6.0. The “herbicidal effect rating, CYPIR” value came out at 3.0 in the test with Cyperus iria (Rate 0.0320 kg/ha), 4.0 in the test on Cyperus iria (Rate 0.0620 kg/ha), 5.0 with Cyperus iria (Rate 0.1250 kg/ha) and 6.0 with Cyperus iria (Rate 0.2500 kg/ha). The “herbicidal effect rating, CYPSE” value in test [2] (Rate 0.0620 kg/ha) came to 0.0; in test [2] (Rate 0.1250 kg/ha) it was 0.0; in test [2] (Rate 0.2500 kg/ha) it was 3.0. Besides, the “herbicidal effect rating, MOOVA” value in test [3] (Rate 0.0320 kg/ha) is 6.0; in test [3] (Rate 0.0620 kg/ha), 7.0; in test [3] (Rate 0.1250 kg/ha), 7.0; in test [3] (Rate 0.2500 kg/ha), 9.0. The “herbicidal effect rating, SAGPY” value in the test on Sagittaria pygmaea, L. (Rate 0.0320 kg/ha) is recorded as 0.0; in the test on Sagittaria pygmaea, L. (Rate 0.0620 kg/ha), 0.0; in the test with Sagittaria pygmaea, L. (Rate 0.1250 kg/ha) it was 2.0; in the test on Sagittaria pygmaea, L. (Rate 0.2500 kg/ha), 3.0.

In the case of `Cn1c(C(F)(F)F)cc(=O)n(-c2ccc3snc(COC(=O)Cc4ccccc4Cl)c3c2)c1=O` [Example 402, 2,4(1H,3H)-Pyrimidinedione, 3-[3-(hydroxymethyl)-1,2-benzisothiazol-5-yl]-1-methyl-6-(trifluoromethyl)-, (o-chlorophenyl)acetate (ester)], the “herbicidal effect rating, ECHORC” value worked out at 0.0 in test [1] (Rate 0.0320 kg/ha), 0.0 in test [1] (Rate 0.0620 kg/ha), 3.0 in test [1] (Rate 0.1250 kg/ha) and 4.0 in test [1] (Rate 0.2500 kg/ha). In addition, the “herbicidal effect rating, CYPIR” value in the test on Cyperus iria (Rate 0.0320 kg/ha) came out at 0.0; with Cyperus iria (Rate 0.0620 kg/ha), 2.0; in the test on Cyperus iria (Rate 0.1250 kg/ha), 3.0; in the test with Cyperus iria (Rate 0.2500 kg/ha), 7.0. The “herbicidal effect rating, CYPSE” value in test [2] (Rate 0.0620 kg/ha) is 0.0; in test [2] (Rate 0.1250 kg/ha), 0.0; in test [2] (Rate 0.2500 kg/ha) it was 5.0. The “herbicidal effect rating, MOOVA” value in test [3] (Rate 0.0320 kg/ha) was determined as 7.0; in test [3] (Rate 0.0620 kg/ha) it was 7.0; in test [3] (Rate 0.1250 kg/ha), 9.0; in test [3] (Rate 0.2500 kg/ha), 9.0. The “herbicidal effect rating, SAGPY” value with Sagittaria pygmaea, L. (Rate 0.0320 kg/ha) is reported as 0.0; in the test with Sagittaria pygmaea, L. (Rate 0.0620 kg/ha), 0.0; in the test with Sagittaria pygmaea, L. (Rate 0.1250 kg/ha) it was 0.0; in the test with Sagittaria pygmaea, L. (Rate 0.2500 kg/ha) it was 3.0.

Turning to `CONC(=O)c1nsc2ccc(-n3c(=O)cc(C(F)(F)F)n(C)c3=O)cc12` [Example 403, 1,2-Benzisothiazole-3-carboxamide, 5-[3,6-dihydro-3-methyl-2,6-dioxo-4-(trifluoromethyl)-1(2H)-pyrimidinyl]-N-methoxy-], the results for the ECHORC in test [1] (0.0320 kg/ha), in test [1] (0.0620 kg/ha) and in test [1] (0.1250 kg/ha) were 0.0, 2.0 and 4.0, respectively. For the same compound, the “herbicidal effect rating, ECHORC” value in test [1] (Rate 0.2500 kg/ha) worked out at 4.0. Besides, the CYPIR in the test on Cyperus iria (0.0320 kg/ha) is 5.0; in the test with Cyperus iria (0.0620 kg/ha), 6.0; in the test on Cyperus iria (0.1250 kg/ha), 7.0. Besides, in the test on Cyperus iria (Rate 0.2500 kg/ha), the “herbicidal effect rating, CYPIR” value was determined as 9.0. In addition, the CYPSE in test [2] (0.0320 kg/ha) is recorded as 0.0; in test [2] (0.0620 kg/ha), 0.0; in test [2] (0.1250 kg/ha), 2.0. In test [2] (Rate 0.2500 kg/ha), the “herbicidal effect rating, CYPSE” value amounted to 4.0. Further, the MOOVA in test [3] (0.0320 kg/ha) is given as 7.0; in test [3] (0.0620 kg/ha), 6.0; in test [3] (0.1250 kg/ha), 9.0. Besides, the “herbicidal effect rating, MOOVA” value in test [3] (Rate 0.2500 kg/ha) amounted to 9.0. Also, the SAGPY worked out at 3.0 with Sagittaria pygmaea, L. (0.0320 kg/ha); 9.0 with Sagittaria pygmaea, L. (0.0620 kg/ha); 9.0 in the test with Sagittaria pygmaea, L. (0.1250 kg/ha). The “herbicidal effect rating, SAGPY” value with Sagittaria pygmaea, L. (Rate 0.2500 kg/ha) was 9.0.

On to `Cn1c(C(F)(F)F)cc(=O)n(-c2ccc3snc(C(SCCCO)SCCCO)c3c2)c1=O` [Example 424, 1,2-Benzisothiazole-3-carboxaldehyde, 5-[3,6-dihydro-3-methyl-2,6-dioxo-4-(trifluoromethyl)-1(2H)-pyrimidinyl]-, 3-[bis(3-hydroxypropyl)dithioacetal]], for which the ECHORC in test [1] (0.0320 kg/ha) is 0.0; in test [1] (0.0620 kg/ha), 0.0; in test [1] (0.1250 kg/ha), 3.0; in test [1] (0.2500 kg/ha), 3.0. The CYPIR was found to be 4.0 with Cyperus iria (0.0320 kg/ha), 5.0 in the test on Cyperus iria (0.0620 kg/ha), 6.0 in the test on Cyperus iria (0.1250 kg/ha) and 7.0 in the test on Cyperus iria (0.2500 kg/ha). The CYPSE in test [2] (0.1250 kg/ha) and in test [2] (0.2500 kg/ha) was 3.0 each time. In addition, the MOOVA in test [3] (0.0320 kg/ha) is on record as 7.0; in test [3] (0.0620 kg/ha), 9.0; in test [3] (0.1250 kg/ha), 9.0; in test [3] (0.2500 kg/ha) it was 9.0. Besides, the SAGPY with Sagittaria pygmaea, L. (0.0320 kg/ha) came out at 0.0; in the test on Sagittaria pygmaea, L. (0.0620 kg/ha), 0.0; in the test with Sagittaria pygmaea, L. (0.1250 kg/ha), 0.0; in the test with Sagittaria pygmaea, L. (0.2500 kg/ha), 0.0.

Regarding `COc1ccc(C)cc1-c1nsc2cc(Cl)c(-n3c(=O)cc(C(F)(F)F)n(C)c3=O)cc12` [Example 442, 2,4(1H,3H)-Pyrimidinedione, 3-[6-chloro-3-(6-methoxy-m-tolyl)-1,2-benzisothiazol-5-yl]-1-methyl-6-(trifluoromethyl)-], the ECHORC in test [1] (0.0320 kg/ha) turned out to be 8.3; in test [1] (0.0620 kg/ha), 9.0; in test [1] (0.1250 kg/ha), 9.0; in test [1] (0.2500 kg/ha), 9.0. Also, the CYPIR in the test on Cyperus iria (0.0320 kg/ha) amounted to 4.3; in the test on Cyperus iria (0.0620 kg/ha) it was 6.3; in the test with Cyperus iria (0.1250 kg/ha), 8.7; with Cyperus iria (0.2500 kg/ha), 9.0. Moreover, the CYPSE in test [2] (0.0320 kg/ha) came out at 0.0; in test [2] (0.0620 kg/ha), 0.0; in test [2] (0.1250 kg/ha), 0.0; in test [2] (0.2500 kg/ha) it was 4.5. The MOOVA in test [3] (0.0320 kg/ha) was found to be 6.0; in test [3] (0.0620 kg/ha) it was 8.3; in test [3] (0.1250 kg/ha), 9.0; in test [3] (0.2500 kg/ha) it was 9.0. Moreover, the SAGPY is recorded as 1.3 in the test on Sagittaria pygmaea, L. (0.0320 kg/ha); 1.7 with Sagittaria pygmaea, L. (0.0620 kg/ha); 2.0 in the test on Sagittaria pygmaea, L. (0.1250 kg/ha); 4.0 in the test on Sagittaria pygmaea, L. (0.2500 kg/ha).

As to `COC(=O)COc1ccc(C)cc1-c1nsc2cc(Cl)c(-n3c(=O)cc(C(F)(F)F)n(C)c3=O)cc12` [Example 443, Acetic acid, {{2-{6-chloro-5-[3,6-dihydro-3-methyl-2,6-dioxo-4-(trifluoromethyl)-1(2H)-pyrimidinyl]-1,2-benzisothiazol-3-yl}-p-tolyl}oxy}-, methyl ester], the ECHORC in test [1] (0.0320 kg/ha) is recorded as 6.0; in test [1] (0.0620 kg/ha), 5.0; in test [1] (0.1250 kg/ha), 7.0; in test [1] (0.2500 kg/ha), 9.0. For the same compound, the CYPIR in the test on Cyperus iria (0.0320 kg/ha) was 4.0; with Cyperus iria (0.0620 kg/ha), 6.0; in the test with Cyperus iria (0.1250 kg/ha), 7.0; in the test with Cyperus iria (0.2500 kg/ha) it was 7.0. Besides, the CYPSE in test [2] (0.0320 kg/ha), in test [2] (0.0620 kg/ha) and in test [2] (0.1250 kg/ha) was 0.0 throughout. Moreover, the MOOVA in test [3] (0.0320 kg/ha) stood at 5.0; in test [3] (0.0620 kg/ha), 6.0; in test [3] (0.1250 kg/ha), 7.0; in test [3] (0.2500 kg/ha), 7.0. The SAGPY with Sagittaria pygmaea, L. (0.0320 kg/ha) stood at 3.0; in the test on Sagittaria pygmaea, L. (0.0620 kg/ha), 3.0; in the test with Sagittaria pygmaea, L. (0.1250 kg/ha) it was 4.0; with Sagittaria pygmaea, L. (0.2500 kg/ha), 5.0.
